Experiment [1] addresses T1, Recombinant STAT3 protein (STAT3(G127-I722)) (Homo sapiens, UniProt P40763).
T1 construct: STAT3(G127-I722)
In words: STAT3 Fluorescence Polarization (FP) Assay. Format: binding. The settings on record: STAT3(G127-I722) 25 nM, probe 5-FAM-GpYLPQTV-NH2 2 nM, 45-minute incubation. In a few lines:
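Serially diluted compounds (1% DMSO) were mixed with 2 nM fluorescent phosphotyrosine peptide and 25 nM STAT3 construct G127-I722, pH 7.4, incubated 45 min at room temperature. IC50 values from fitted polarization curves are reported as categories A (≤100 nM), B, C, D (>10 μM).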
On the technique in general: In fluorescence polarisation assays a small probe gives low polarisation when free and higher when bound to something large.

Experiment [2] addresses T2, Recombinant STAT6 protein (STAT6(W123-T658)) (Homo sapiens, UniProt P42226).
T2 construct: STAT6(W123-T658)
T2 sequence (P42226 123-658): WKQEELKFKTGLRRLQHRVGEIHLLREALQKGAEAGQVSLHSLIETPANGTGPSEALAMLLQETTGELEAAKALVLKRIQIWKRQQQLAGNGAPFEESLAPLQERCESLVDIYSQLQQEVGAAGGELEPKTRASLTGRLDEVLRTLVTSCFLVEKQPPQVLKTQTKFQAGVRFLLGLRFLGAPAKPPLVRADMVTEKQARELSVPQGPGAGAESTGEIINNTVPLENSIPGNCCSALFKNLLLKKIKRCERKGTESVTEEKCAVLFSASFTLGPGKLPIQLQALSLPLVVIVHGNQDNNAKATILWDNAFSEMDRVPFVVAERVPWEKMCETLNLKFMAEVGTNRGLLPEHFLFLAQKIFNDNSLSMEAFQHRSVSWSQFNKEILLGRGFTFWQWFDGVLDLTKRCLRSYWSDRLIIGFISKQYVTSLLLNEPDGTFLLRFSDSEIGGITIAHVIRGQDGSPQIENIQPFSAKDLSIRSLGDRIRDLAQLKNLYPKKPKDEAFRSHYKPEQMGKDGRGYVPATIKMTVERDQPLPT
In words: STAT6 Fluorescence Polarization (FP) Assay. Format: binding. The settings on record: STAT6(W123-T658) 250 nM, probe 5-FAM-ApYKPFQDLI-NH2 2 nM, 45-minute incubation. In a few lines:
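Competitive displacement of a fluorescent phosphotyrosine peptide (2 nM) from recombinant STAT6 W123-T658 (250 nM), 45 min at room temperature in 10 mM HEPES pH 7.4, 50 mM NaCl, 2 mM DTT. mP fitted against log compound for IC50, grouped A (≤300 nM) to D (>30 μM).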

Among the data in patent US20250215030A1, “STAT MODULATORS AND USES THEREOF” (Recludix Pharma, Inc., priority 2022, published 2025) are IC50 values, retold here.

T1 sequence (P40763 127-722, species assumed): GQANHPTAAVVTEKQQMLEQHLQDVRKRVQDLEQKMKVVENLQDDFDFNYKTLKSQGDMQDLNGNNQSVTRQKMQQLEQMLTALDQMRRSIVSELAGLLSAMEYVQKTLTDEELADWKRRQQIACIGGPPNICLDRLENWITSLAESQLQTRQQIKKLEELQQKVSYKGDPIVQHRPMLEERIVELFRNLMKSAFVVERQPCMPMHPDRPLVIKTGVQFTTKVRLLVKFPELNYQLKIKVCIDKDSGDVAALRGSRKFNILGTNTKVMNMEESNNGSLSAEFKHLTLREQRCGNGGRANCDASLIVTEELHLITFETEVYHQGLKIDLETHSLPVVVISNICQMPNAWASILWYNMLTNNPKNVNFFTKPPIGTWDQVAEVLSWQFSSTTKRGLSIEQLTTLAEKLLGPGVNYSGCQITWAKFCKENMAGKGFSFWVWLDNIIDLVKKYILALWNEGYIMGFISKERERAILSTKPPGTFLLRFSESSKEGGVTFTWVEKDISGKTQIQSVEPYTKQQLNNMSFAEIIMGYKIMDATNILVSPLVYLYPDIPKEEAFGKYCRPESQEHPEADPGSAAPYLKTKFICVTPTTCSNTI

As to `O=C(N[C@H]1C[C@@H]2C[C@@H]2C[C@H]2CC[C@@H](C(=O)N3CC4(CC(=O)c5nccn54)C3)N2C1=O)c1cc2cc(C(F)(F)P(=O)(O)O)ccc2s1` [Compound 90, (difluoro(2-(((3S,6S,7aS,8aR,9aR)-5-oxo-3-(7′-oxo-6′,7′-dihydrospiro[azetidine-3,5′-pyrrolo[1,2-a]imidazole]-1-carbonyl)decahydro-1H-cyclopropa[d]pyrrolo[1,2-a]azocin-6-yl)carbamoyl)benzo[b]thiophen-5-yl)methyl)phosphonic acid], the IC50 (in general, the concentration that gives 50% inhibition) in experiment [1] is < 100 nM; in experiment [2], 300 to 3000 nM.
On the same counts, the results for `NC(=O)Cc1cc(-c2ccccc2)ccc1NC(=O)[C@@H]1CC[C@@H]2C[C@H]3C[C@H]3C[C@H](NC(=O)c3cc4cc(C(F)(F)P(=O)(O)O)ccc4s3)C(=O)N21` [Compound 26, ((2-(((3S,6S,7aS,8aR,9aR)-3-((3-(2-amino-2-oxoethyl)-[1,1′-biphenyl]-4-yl)carbamoyl)-5-oxodecahydro-1H-cyclopropa[d]pyrrolo[1,2-a]azocin-6-yl)carbamoyl)benzo[b]thiophen-5-yl)difluoromethyl)phosphonic acid] are < 100 nM and 300 to 3000 nM.
For `N#Cc1ccc(C2CN(C(=O)[C@@H]3CC[C@@H]4C[C@@H]5C[C@@H]5C[C@H](NC(=O)c5cc6cc(C(F)(F)P(=O)(O)O)ccc6s5)C(=O)N43)C2)cc1` [Compound 74, ((2-(((3S,6S,7aR,8aS,9aR)-3-(3-(4-cyanophenyl)azetidine-1-carbonyl)-5-oxodecahydro-1H-cyclopropa[d]pyrrolo[1,2-a]azocin-6-yl)carbamoyl)benzo[b]thiophen-5-yl)difluoromethyl)phosphonic acid], the IC50 in experiment [1] is < 100 nM; in experiment [2] it was 300 to 3000 nM.
On to `O=C(N[C@H]1C[C@H]2C[C@H]2C[C@H]2CC[C@@H](C(=O)N3CC(C(=O)N4CCOCC4)C3)N2C1=O)c1cc2cc(C(F)(F)P(=O)(O)O)ccc2s1` [Compound 71, (difluoro(2-(((3S,6S,7aR,8aS,9aR)-3-(3-(morpholine-4-carbonyl)azetidine-1-carbonyl)-5-oxodecahydro-1H-cyclopropa[d]pyrrolo[1,2-a]azocin-6-yl)carbamoyl)benzo[b]thiophen-5-yl)methyl)phosphonic acid], for which the IC50 in experiment [1] is < 100 nM; in experiment [2], 3000 to 30000 nM.
On the same counts, the results for `CC(=O)N1CCC2C1CN2C(=O)[C@@H]1CC[C@@H]2C[C@H]3C[C@H]3C[C@H](NC(=O)c3cc4cc(C(F)(F)P(=O)(O)O)ccc4s3)C(=O)N21` (stereo partly drawn) [Example 270, ((2-(((3S,6S,7aS,8aR,9aR)-3-(2-acetyl-2,6-diazabicyclo[3.2.0]heptane-6-carbonyl)-5-oxodecahydro-1H-cyclopropa[d]pyrrolo[1,2-a]azocin-6-yl)carbamoyl)benzo[b]thiophen-5-yl)difluoromethyl)phosphonic acid] are < 100 nM and 300 to 3000 nM.
On the same counts, the results for `N#C[C@@H]1CN(C(=O)[C@@H]2CC[C@@H]3C[C@H]4C[C@H]4C[C@H](NC(=O)c4cc5cc(C(F)(F)P(=O)(O)O)ccc5s4)C(=O)N32)C[C@H]1c1ccccc1` (relative stereo) [Compound 10, ((2-(((3S,6S,7aS,8aR,9aR)-3-((rel-trans)-3-cyano-4-phenylpyrrolidine-1-carbonyl)-5-oxodecahydro-1H-cyclopropa[d]pyrrolo[1,2-a]azocin-6-yl)carbamoyl)benzo[b]thiophen-5-yl)difluoromethyl)phosphonic acid] are 100 to 1000 nM and ≤ 300 nM.
On the same counts, the results for `COc1ccncc1C1CN(C(=O)[C@@H]2CC[C@@H]3C[C@@H]4C[C@@H]4C[C@H](NC(=O)c4cc5cc(C(F)P(=O)(O)O)ccc5s4)C(=O)N32)C1` (stereo partly drawn) [Example 318, (fluoro(2-(((3S,6S,7aR,8aS,9aR)-3-(3-(4-methoxypyridin-3-yl)azetidine-1-carbonyl)-5-oxodecahydro-1H-cyclopropa[d]pyrrolo[1,2-a]azocin-6-yl)carbamoyl)benzo[b]thiophen-5-yl)methyl)phosphonic acid] are < 100 nM and 3000 to 30000 nM.
`Cn1cc(C2CN(C(=O)[C@@H]3CC[C@@H]4C[C@H]5C[C@H]5C[C@H](NC(=O)c5cc6cc(C(F)(F)P(=O)(O)O)ccc6s5)C(=O)N43)C2)cn1` [Example 282, (difluoro(2-(((3S,6S,7aS,8aR,9aR)-3-(3-(1-methyl-1H-pyrazol-4-yl)azetidine-1-carbonyl)-5-oxodecahydro-1H-cyclopropa[d]pyrrolo[1,2-a]azocin-6-yl)carbamoyl)benzo[b]thiophen-5-yl)methyl)phosphonic acid]: the IC50 in experiment [1] is < 100 nM; in experiment [2] it was 3000 to 30000 nM.
For the molecule `Cc1ccccc1C1CN(C(=O)[C@@H]2CC[C@@H]3C[C@H]4C[C@H]4C[C@H](NC(=O)c4cc5cc(C(F)(F)P(=O)(O)O)ccc5s4)C(=O)N32)C1` [Compound 85, (difluoro(2-(((3S,6S,7aS,8aR,9aR)-5-oxo-3-(3-(o-tolyl)azetidine-1-carbonyl)decahydro-1H-cyclopropa[d]pyrrolo[1,2-a]azocin-6-yl)carbamoyl)benzo[b]thiophen-5-yl)methyl)phosphonic acid], the IC50 in experiment [1] is < 100 nM; in experiment [2], 300 to 3000 nM.
On the same counts, the results for `O=C(N[C@H]1C[C@H]2C[C@H]2C[C@H]2CC[C@@H](C(=O)N3CC(c4ccccc4)C3)N2C1=O)c1cc2cc(C(F)(F)P(=O)(O)O)ccc2s1` [Compound 121] are < 100 nM and 300 to 3000 nM.
With `O=C(N[C@H]1C[C@H]2C[C@H]2C[C@H]2CC[C@@H](C(=O)N3CC(c4ccon4)C3)N2C1=O)c1cc2cc([C@H](F)P(=O)(O)O)ccc2s1` (single isomer, unassigned) [Example 346], the IC50 in experiment [1] is < 100 nM; in experiment [2], 3000 to 30000 nM.
On the same counts, the results for `N#C[C@@H]1CN(C(=O)[C@@H]2CC[C@@H]3C[C@H]4C[C@H]4C[C@H](NC(=O)c4cc5cc(C(F)(F)P(=O)(O)O)ccc5s4)C(=O)N32)C[C@]12C(=O)Nc1ccccc12` (single isomer, unassigned) [Compound 28] are < 100 nM and ≤ 300 nM.
On the same counts, the results for `CC(=O)N1CC2C1CCN2C(=O)[C@@H]1CC[C@@H]2C[C@H]3C[C@H]3C[C@H](NC(=O)c3cc4cc(C(F)(F)P(=O)(O)O)ccc4s3)C(=O)N21` (stereo partly drawn) [Example 258, ((2-(((3S,6S,7aS,8aR,9aR)-3-(6-acetyl-2,6-diazabicyclo[3.2.0]heptane-2-carbonyl)-5-oxodecahydro-1H-cyclopropa[d]pyrrolo[1,2-a]azocin-6-yl)carbamoyl)benzo[b]thiophen-5-yl)difluoromethyl)phosphonic acid] are < 100 nM and 300 to 3000 nM.
On the same counts, the results for `CC(=O)N1CCC2C1CN2C(=O)[C@@H]1CC[C@@H]2C[C@H]3C[C@H]3C[C@H](NC(=O)c3cc4cc(CP(=O)(O)O)ccc4s3)C(=O)N21` (stereo partly drawn) [Example 271, ((2-(((3S,6S,7aS,8aR,9aR)-3-(2-acetyl-2,6-diazabicyclo[3.2.0]heptane-6-carbonyl)-5-oxodecahydro-1H-cyclopropa[d]pyrrolo[1,2-a]azocin-6-yl)carbamoyl)benzo[b]thiophen-5-yl)methyl)phosphonic acid] are 1000 to 10000 nM and > 30000 nM.
As to `O=C(N[C@H]1C[C@@H]2C[C@@H]2C[C@H]2CC[C@@H](C(=O)N3CC[C@H](C(=O)N4CCOCC4)C3)N2C1=O)c1cc2cc(C(F)(F)P(=O)(O)O)ccc2s1` (single isomer, unassigned) [Compound 99], the IC50 fell in the range of 100 to 1000 nM in experiment [1] and 3000 to 30000 nM in experiment [2].
On the same counts, the results for `O=C(N[C@H]1C[C@@H]2C[C@@H]2C[C@H]2CC[C@@H](C(=O)N[C@@H]3CCN(c4cccnn4)C3)N2C1=O)c1cc2cc(C(F)(F)P(=O)(O)O)ccc2s1` [Compound 51, (difluoro(2-(((3S,6S,7aS,8aR,9aR)-5-oxo-3-(((R)-1-(pyridazin-3-yl)pyrrolidin-3-yl)carbamoyl)decahydro-1H-cyclopropa[d]pyrrolo[1,2-a]azocin-6-yl)carbamoyl)benzo[b]thiophen-5-yl)methyl)phosphonic acid] are < 100 nM and 300 to 3000 nM.
On the same counts, the results for `Cc1nnc(C2(C)CN(C(=O)[C@@H]3CC[C@@H]4C[C@@H]5C[C@@H]5C[C@H](NC(=O)c5cc6cc(C(F)(F)P(=O)(O)O)ccc6s5)C(=O)N43)C2)o1` [Compound 82, (difluoro(2-(((3S,6S,7aR,8aS,9aR)-3-(3-methyl-3-(5-methyl-1,3,4-oxadiazol-2-yl)azetidine-1-carbonyl)-5-oxodecahydro-1H-cyclopropa[d]pyrrolo[1,2-a]azocin-6-yl)carbamoyl)benzo[b]thiophen-5-yl)methyl)phosphonic acid] are < 100 nM and 300 to 3000 nM.
